Results published in patent US20120046273A1, “COMPOUNDS AND COMPOSITIONS FOR COGNITION-ENHANCEMENT, METHODS OF MAKING, AND METHODS OF TREATING” (MITHRIDION, INC., priority 2009, published 2012).
Counter-ions that a name gives are not always drawn. Like-named read-outs stand apart in the source and are kept apart here.

Experiments:
[1] = Brain concentrations in rats after oral gavage; type: in vivo, rat; conditions: rat, 10 mg/kg po, relative to MCD-386
Procedure: Long-Evans Hooded rats (Charles River: male, 250-350 g) were dosed with solutions of test compounds in PBS by oral gavage. At the desired time after dosing, the animals were anesthetized with isoflurane, and then euthanized by cervical dislocation. Blood was obtained by cardiac puncture, transferred to a 1.5 mL microcentrifuge tube containing 15U Heparin, and the plasma recovered after centrifugation. Brains were dissected, weighed, immediately chilled to 4° C., and homogenized using a PowerGen 125 homogenizer in five volumes of ice-cold 2% formic acid. Proteins were precipitated from plasma and brain homogenate with two and five volumes respectively of ice-cold 2% formic acid and clarified by centrifugation. The supernatant was ultra-filtered by centrifugation through a 3K MWCO spin column (Pall Life Sciences), following the manufacturer's instructions. The concentration of compound in the ultra-filtrate was subjected to reverse-phase liquid chromatography using a 150×2.1 mm Agilent C8 reverse-phase column on a Shimadzu Prominence LC, eluting the compounds with a gradient of 2% to 50% of acetonitrile+0.1% formic acid for compound MI-50,382, or an isocratic flow of 2% acetonitrile+0.1% formic acid for the rest of the compounds listed. The concentration of the compound in the column effluent was measured using an Applied Biosystems API-3200 triple quadrupole mass spectrometer equipped with an electrospray sample injection system. The counts of the characteristic parent and product ions of each test compound were converted to concentration units by comparison with a standard calibration curve.

[2] = Metabolites in serum and urine of dosed rats (LC-MS); type: in vivo; conditions: rat serum/plasma or urine, oral dosing
Procedure: Oxadiazoles disclosed herein as well as other oxadiazoles were investigated to determine the formation of metabolites. Animals were dosed, blood taken, serum prepared, serum proteins precipitated and ultrafiltrates prepared as described in Example 6. In separate experiments, urine was collected from rats for 16-24 hours after dosing, using standard metabolic cages. The urine container and collected urine were maintained at 4° C. Urine was lyophilized, taken back into water. The ultrafiltrate was prepared by adding formic acid to a final concentration of 1% to the urine samples, then filtered through a 0.2 um nylon membrane. The ultrafiltrate was subjected to LC-MS analysis. Instead of measuring the product ions in Q3, manual Q1 scans of the liquid chromatograph were undertaken, seeking parent ions of potential metabolites of the compounds. The criteria for identifying metabolites were as follows: (1) the ion should be present in the sera or urines of dosed rats, but not in sera or urines from non-dosed rats (2) the ion should be identifiable as a metabolic derivative of the dosed compound (e.g. loss of a functional chemical moiety, addition of a hydroxyl group or a glucuronic acid moiety, etc). Metabolites were determined not to be present if no compound meeting the above criteria could be detected in serum or urine.

[3] = Brain/plasma concentration ratio after oral dosing to rats; conditions: rat
[4] = Plasma concentration in rats, iontophoresis patch versus oral gavage; type: in vivo; conditions: Long Evans Hooded, rat
From the text: Two patches were made up, consisting (in order from the outer layer to the skin contacting surface, respectively): adhesive tape (Transpore, 27 mm wide, 3M), circular stainless steel electrodes (22 mm dia) with a central hole for a stainless steel machine screw to which the electrode wire was attached, and 2 layers of 3MM CHR filter paper (Cat #3030-861, Whatman International, Ltd).
The mid-dorsal area of a Long Evans Hooded rat (approximate weight, 320 grams), surgically prepared with a jugular vein catheter (Charles River), was shaved and the skin was then cleaned using an Electrode Prep Pad (Professional Disposables, Inc, Cat #B59800). […]
Blood (400 μl) was withdrawn from the catheters in each rat every 30 minutes, transferred to 1.5 ml centrifuge tubes containing heparin (15 units/tube), and the plasma was separated by centrifugation from the cellular components. The plasma samples were maintained at 4 deg C. until analyzed. […]
The ultra-filtrates were subjected to reverse-phase liquid chromatography using a 150×2.1 mm Agilent C8 reverse-phase column on a Shimadzu Prominence LC, eluting the MCD-386 with an isocratic flow of 2% acetonitrile+0.1% formic acid. The concentration of MCD-386 in the column effluent was measured using an Applied Biosystems API-3200 triple quadrupole mass spectrometer equipped with a Turbo V source (electrospray sample injection) system. […]

[5] = system: apomorphine induced climbing; assay: Apomorphine induced climbing model of psychosis; type: in vivo, CD-I mice; conditions: mice, sc
Procedure: As described in Costall et. al. European Journal of Pharmacology 1978, 50, 39. individual CD-I mice, 1-2 months old, were placed in a cylindrical wire mesh cage (13.2 cm high×13.2 cm diameter) constructed of steel wire 1 mm thick spaced at 1.2 cm^2. Cylinders were placed in a standard OptiMICE mouse cage (29×32×9×29 cm wide and 14 cm high) with adequate wood chip bedding provided. Observations of climbing (defined as 3 or more paws off the ground) were carried out every 5 minutes at a duration of 1 minute for 30 minutes. Animals were injected subcutaneously under isoflurane anesthesia with test compounds, reference compounds, which included clozapine, haloperidol, olanzapine and xanomeline, or PBS as a control. This was followed 5 minutes later by 2 mg/kg apomorphine hydrochloride. All drugs were dissolved in PBS or a mixture of (by volume) 96% PBS and 4% hydroxypropyl-beta-cyclodextrin, and dosed at a rate of 5 ml per kilogram of body weight. Following injections, animals were replaced in the mesh cages and observed for climbing (defined as 3 or more paws off the ground) every 5 minutes for a duration of 1 minute for 60 minutes after dosing.

[6] = Serum pharmacokinetics of immediate release capsules in human subjects; type: in vivo; conditions: male; for Cmax / half-life: oral
Procedure: The hydrochloride salt of MCD-386 (“MCD-386 HCl”) was formulated with the following excipients and loaded into #3 hard gelatin capsules (5mg dose) or #2 hard gelatin capsules (0.2 mg dose).
(§1) A single 5 mg capsule or 5×0.2 mg capsules (1 mg total dose) were administered orally to healthy male volunteer human subjects with 125 ml of water. Six such subjects receiving the 5 mg dose, and a different 6 subjects received the 1 mg dose.
Venous blood samples were drawn at various intervals after dosing from each subject into standard tubes for bioanalytical and pharmacokinetic analysis. The blood was allowed to clot, and the serum separated, using common clinical laboratory techniques. Serum samples were stored at −20 deg C. until used for analysis.
MCD-386 HCl, which exists in serum principally as the protonated form of MCD-386, was assayed in clinical serum samples as follows. 200 μL aliquots of serum samples were spiked with 50.0 μL of diluent for subject samples and QC samples and 50 μL of the appropriate intermediate standard solution for standards. Twenty five microliters (25.0 μL) of working internal standard stock solution and 40.0 μL of 10 N sodium hydroxide was then added and the samples were vortex mixed. Three milliliters (3.00 mL) of ethyl acetate was added followed by 5 minutes of vigorous vortexing and centrifugation. The top organic layer was transferred to a clean tube, evaporated to dryness, and the sample was reconstituted with 100 μL of diluent (0.1% formic acid). A 10 μL aliquot of this reconstituted sample was injected into Phenomenex Synergy 4 μ POLAR-RP, 75×2.0 mm (P/N 00C-4336-B0) on a Waters Acuity UPLC LC system, and eluted using a gradient of from 12% to 90% acetonitrile containing 0.1% formic acid/0.1% formic acid in water. The eluant flow of the LC was injected by Turbo Ion Spray (positive ion) into a Sciex API 4000 (Applied Biosystems). The MS/MS transitions monitored were 181.1 m/z to 111.0 m/z for MCD-386 HCl and 186.1 m/z to 111.1 m/z for the internal standard, D5- MCD-386 HCl. The calibration curve was linear between 0.100 ng/mL and 50.0 ng/mL for MCD-386 HCl. The lower limit of quantitation (LLOQ) was 0.100 ng MCD-386 HCl per mL of serum. MCD-386 HCl concentrations are expressed as free base.
The bioanalytical results were analyzed using Win Nonlin software and common pharmacokinetic methods known to those skilled in the art.

[7] = Metabolites in human serum samples; type: in vivo; conditions: 5mg dose cohort
Procedure: The bioanalytical method for the extraction of metabolites from serum samples entailed adding 450 uL of a 90% acetonitrile +0.1% formic acid solution to 50 uL of the serum samples. The samples were vortexed and centrifuged at 16,000×g at 4° C. for 10 minutes. The supernatants were transferred to 3K molecular weight cut-off (MWCO) spin filters (Pall, Nanosep, #82031-346). Samples were filtered by centrifugation at 13,000×g at 4° C. for 20 minutes. The filtrates were transferred to a 96-well plate and sealed for LC/MS/MS analysis. The system used for this analysis was a Shimadzu Prominence HPLC system. […] The autosampler was maintained at 4° C. Injection volumes for all samples and standards were 40 uL. MRM methods for two possible metabolites were made. An API 3200 triple-quadrupole mass spectrometer with a Turbo V source (Applied Biosystems) was used, following commonly used procedures which would be readily set up by a person skilled in the art of LC-MS/MS. The counts of the characteristic parent and product ions of the free base metabolites were converted to concentration units by comparison with a standard calibration curve.

[8] = system: healthy male volunteer human subjects; assay: Cholinergic side effects of immediate release capsules in human subjects; type: in vivo
Procedure: as §1
Subjects were monitored, among other things, for typical signs of muscarinic cholinergic action, such as increased salivation, lachrimation and diaphoresis.

For `CCc1noc(C2CN=CNC2)n1` (stereo not drawn) [Compound 18, 3-ethyl-5-(1,4,5,6-tetrahydropyrimidin-5-yl)-1,2,4-oxadiazole], which “Brain Cmax (10 mg/kg po) MCD-386 = 1.00” value [1] is on record?
Its value is 1.00.

And the “Presence of metabolites (10 mg/kg po)” value [2]?
Its value is “Yes”.

What about the Kp at 1 hour [3] of the same compound?
Its Kp at 1 hour is 0.07 to 0.13.

What about the concentration at 30 minutes ([4]; other: iontophoresis patch (transdermal), 3.2 mg/kg, iontophoresis patch, dose 3.2 mg/kg) of the same compound?
The concentration at 30 minutes was roughly 850 nM.

And the concentration at 30 minutes ([4]; po, 10 mg/kg, oral gavage)?
Its concentration at 30 minutes is 911 nM.

What about the “PAMPA (? × 106)” value (PAMPA test) of the same compound?
Its value is 0.05 ? × 106.

What about the “activity in the apomorphine induced climbing model” value [5] of the same compound?
Its value is “inactive”.

What does the source list for `CCc1noc(C2CN=CNC2)n1` (stereo not drawn) [MCD-386 HCl, 5-(3-ethyl-1,2,4-oxadiazol-5-yl)-1,4,5,6-tetrahydropyrimidine]?
Cmax ([6]; 6 subjects receiving 1 mg of MCD-386 HCl): ≤ 8 ng/mL; Cmax ([6]; 6 subjects receiving 5 mg of MCD-386 HCl): 7.9 to 25.2 ng/mL; Tmax ([6]; oral immediate release capsules): 1 to 1.5 h; half-life ([6]; 0.2 mg, cohort of 6 subjects receiving 0.2 mg, +/- SD, read-out: mean half-life (converted)): 1.2 h; half-life ([6]; 1 mg, 1 mg cohort, +/- SD, read-out: half-life of the free base (converted)): 1.44 h; half-life ([6]; 5 mg, 5 mg cohort excluding one subject, read-out: mean half-life for the other 5 subjects (converted)): 1.44 h; half-life ([6]; 5 mg, 5 mg cohort, +/- SD, read-out: half-life of the free base (converted)): 1.71 h; half-life ([6]; 5 mg, 5 mg cohort, subject with the longest half-life, read-out: half-life in one subject (converted)): 2.93 h; main metabolite of the free base identified in serum samples [7]: five out of six subjects; observable cholinergic side effects ([8]; 1 mg total dose cohort, 6 subjects): none of the subjects; subjects with mild hypersalivation ([8]; 5 mg cohort): One; subjects with mild, transient diaphoresis ([8]; 5 mg cohort): Two; subjects with moderate diaphoresis ([8]; 5 mg cohort): two; signs of muscarinic cholinergic activity ([8]; 5 mg cohort, 6 subjects): four subjects showed signs of muscarinic cholinergic activity
